From ChEMBL document CHEMBL1130781, “Structure-based design and synthesis of a series of hydroxamic acids with a quaternary-hydroxy group in P1 as inhibitors of matrix metalloproteinases” (Bioorg Med Chem Lett, 1998) come the findings set out here.

pKi: −log10 of the molar value.

Experiment [1] has as its target T1, Interstitial collagenase (Homo sapiens, UniProt P03956).
T1 sequence (P03956 whole entry): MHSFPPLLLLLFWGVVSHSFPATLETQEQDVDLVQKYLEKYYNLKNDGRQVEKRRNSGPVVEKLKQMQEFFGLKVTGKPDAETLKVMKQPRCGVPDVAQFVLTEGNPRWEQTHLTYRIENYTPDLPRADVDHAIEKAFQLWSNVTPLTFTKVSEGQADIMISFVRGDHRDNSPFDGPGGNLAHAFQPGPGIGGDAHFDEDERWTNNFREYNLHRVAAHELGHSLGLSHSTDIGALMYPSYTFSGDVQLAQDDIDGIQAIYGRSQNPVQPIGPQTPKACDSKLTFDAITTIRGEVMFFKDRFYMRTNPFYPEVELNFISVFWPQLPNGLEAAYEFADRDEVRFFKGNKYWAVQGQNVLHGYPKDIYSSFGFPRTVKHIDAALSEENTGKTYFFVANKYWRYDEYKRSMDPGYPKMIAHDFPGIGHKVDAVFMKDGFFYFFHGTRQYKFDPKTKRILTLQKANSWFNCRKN
In words: Binding affinity was evaluated against matrix metalloprotease-1.

In experiment [2] the target is Stromelysin-1 (Homo sapiens, UniProt P08254). As to the kind of experiment: Binding affinity against human matrix metalloprotease-3.
Sequence of Stromelysin-1 (P08254 whole entry): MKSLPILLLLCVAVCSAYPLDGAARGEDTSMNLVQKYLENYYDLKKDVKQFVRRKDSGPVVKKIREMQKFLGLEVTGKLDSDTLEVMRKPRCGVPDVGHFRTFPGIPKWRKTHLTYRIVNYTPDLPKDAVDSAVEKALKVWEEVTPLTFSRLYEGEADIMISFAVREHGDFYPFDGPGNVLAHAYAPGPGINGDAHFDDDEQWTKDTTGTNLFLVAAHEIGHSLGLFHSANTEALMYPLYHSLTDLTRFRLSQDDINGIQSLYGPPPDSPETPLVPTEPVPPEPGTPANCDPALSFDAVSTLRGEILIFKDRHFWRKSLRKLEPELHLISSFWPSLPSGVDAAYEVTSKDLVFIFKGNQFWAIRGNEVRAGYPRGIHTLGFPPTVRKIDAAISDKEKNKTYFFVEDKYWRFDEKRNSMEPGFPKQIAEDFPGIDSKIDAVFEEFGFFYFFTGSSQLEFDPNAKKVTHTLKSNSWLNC
In experiment [3] the target is Matrix metalloproteinase-9 (Homo sapiens, UniProt P14780). In words: Binding affinity was evaluated against matrix metalloprotease-9.
Sequence of Matrix metalloproteinase-9 (P14780 whole entry): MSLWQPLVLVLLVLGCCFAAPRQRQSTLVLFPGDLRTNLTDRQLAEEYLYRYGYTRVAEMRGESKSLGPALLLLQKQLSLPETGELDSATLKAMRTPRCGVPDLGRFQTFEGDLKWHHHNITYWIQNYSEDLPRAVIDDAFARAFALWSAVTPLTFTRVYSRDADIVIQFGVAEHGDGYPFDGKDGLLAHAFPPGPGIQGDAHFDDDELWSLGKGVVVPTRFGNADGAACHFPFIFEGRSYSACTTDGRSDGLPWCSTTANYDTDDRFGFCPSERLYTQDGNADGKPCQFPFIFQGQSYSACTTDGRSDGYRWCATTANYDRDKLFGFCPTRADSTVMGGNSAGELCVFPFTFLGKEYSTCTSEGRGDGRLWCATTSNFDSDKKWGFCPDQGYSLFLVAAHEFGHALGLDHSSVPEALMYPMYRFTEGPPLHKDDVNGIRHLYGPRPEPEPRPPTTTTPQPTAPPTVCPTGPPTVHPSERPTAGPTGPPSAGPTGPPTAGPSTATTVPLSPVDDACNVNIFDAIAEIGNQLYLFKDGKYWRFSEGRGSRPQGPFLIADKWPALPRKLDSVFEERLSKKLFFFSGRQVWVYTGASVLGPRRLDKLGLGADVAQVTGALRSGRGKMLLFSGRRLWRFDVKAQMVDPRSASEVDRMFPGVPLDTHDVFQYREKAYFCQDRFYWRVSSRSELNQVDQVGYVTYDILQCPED

In the case of `C[C@](O)(C(=O)NO)[C@@H](CCCc1ccccc1)C(=O)N[C@@H](CCCCN)C(=O)NCCc1ccccc1`, the pKi (commonly −log10 of the Ki, conventionally taken in molar units) in experiment [1] is 7.60; in experiment [2], 7.55; in experiment [3], 9.00.

For the compound `CNC(=O)[C@H](Cc1ccc(OC)cc1)NC(=O)[C@H](Cc1ccccc1)[C@@](C)(O)C(=O)NO`, the values for the pKi in experiment [1], in experiment [2] and in experiment [3] were 7.07, 6.28 and 8.30, respectively.

Turning to `C[C@@H](NC(=O)[C@H](CCCCN)NC(=O)[C@H](CCCc1ccccc1)[C@@](C)(O)C(=O)NO)c1ccccc1`, the pKi in experiment [1] was 6.55; in experiment [2], 6.77; in experiment [3], 6.83.

For the compound `CNC(=O)[C@H](Cc1ccc(OC)cc1)NC(=O)[C@H](CCc1ccccc1)[C@](C)(O)C(=O)NO`, in experiment [2], the pKi was below 5.00.

As for `CNC(=O)[C@H](CCCN)NC(=O)[C@H](CCCc1ccccc1)[C@@](C)(O)C(=O)NO`, the pKi in experiment [1] is 7.74; in experiment [2] it was 6.99; in experiment [3], 8.30.

In the case of `CNC(=O)[C@H](CCCCN)NC(=O)[C@H](CCCc1ccccc1)[C@@](C)(O)C(=O)NO`, the pKi was 7.82 in experiment [1], 7.49 in experiment [2] and above 9.00 in experiment [3].

Turning to `CNC(=O)[C@H](Cc1ccc(OC)cc1)NC(=O)[C@H](CCCc1ccccc1)[C@@](C)(O)C(=O)NO`, the pKi in experiment [1] is 8.70; in experiment [2], 8.52; in experiment [3], above 9.00.

Take `CNC(=O)[C@H](Cc1ccc(OC)cc1)NC(=O)[C@H](CCc1ccccc1)[C@@](C)(O)C(=O)NO`: the figures for the pKi in experiment [1], in experiment [2] and in experiment [3] were 7.48, 7.60 and 8.70, respectively.

Take `C[C@](O)(C(=O)NO)[C@@H](CCCc1ccccc1)C(=O)N[C@@H](Cc1ccccc1)C(=O)O`: the pKi was 6.78 in experiment [1], 7.60 in experiment [2] and below 6.67 in experiment [3].

Turning to `CNC(=O)[C@H](CCCNC(=O)OC(C)(C)C)NC(=O)[C@H](CCCc1ccccc1)[C@@](C)(O)C(=O)NO`, the pKi is 7.80 in experiment [1], 7.89 in experiment [2] and 8.70 in experiment [3].

For `CNC(=O)[C@H](Cc1ccc(OC)cc1)NC(=O)[C@H](CC(C)C)[C@@](C)(O)C(=O)NO`, the pKi in experiment [1] is 9.22; in experiment [2], 7.89; in experiment [3], above 9.00.

In experiment [2], `CNC(=O)[C@H](Cc1ccc(OC)cc1)NC(=O)[C@H](CC(C)C)[C@](C)(O)C(=O)NO` showed a pKi below 5.00.

Consider `CC(C)(C)OC(=O)[C@H](Cc1ccccc1)NC(=O)[C@H](CCCc1ccccc1)[C@@](C)(O)C(=O)NO`, for which the pKi is 6.70 in experiment [1], 7.00 in experiment [2] and 7.47 in experiment [3].

Compound `CNC(=O)[C@H](Cc1ccc(OC)cc1)NC(=O)[C@H](Cc1ccccc1)[C@](C)(O)C(=O)NO` showed a pKi in experiment [2] below 5.00.

Regarding `CNC(=O)[C@H](CCCNS(=O)(=O)N(C)C)NC(=O)[C@H](CCCc1ccccc1)[C@@](C)(O)C(=O)NO`, the pKi in experiment [1] is 7.66; in experiment [2], 7.62; in experiment [3], 8.70.

As for `CNC(=O)[C@H](CCCNC(=O)N1CCOCC1)NC(=O)[C@H](CCCc1ccccc1)[C@@](C)(O)C(=O)NO`, the pKi is 7.28 in experiment [1], 7.15 in experiment [2] and 8.40 in experiment [3].

Take `CNC(=O)[C@@H](NC(=O)[C@H](CCCc1ccccc1)[C@@](C)(O)C(=O)NO)C(C)(C)C`: the pKi in experiment [1] was 7.89; in experiment [2], 7.89; in experiment [3], above 9.00.
